Assay results published in patent US10781182B2, “Compounds, process for obtaining the compounds, pharmaceutical composition, use of the compounds and method for treating psychiatric disorders and/or sleep disorders” (ACHÉ LABORATÓRIOS FARMACÊUTICOS S.A., priority 2016, dated 2020).

Tests used:
[1] = target: CYP1A2 (Homo sapiens (Human), UniProt P05177); assay: CYP inhibition, fluorogenic substrate; type: in vitro ADME
Text: (§1) The CYP inhibition test used fluorogenic substrates specific to each CYP to check for inhibition thereof by detection of the expected metabolite using a fluorimetric method. Recombinant CYPs (CYP2B6, CYP2C8, […], CYP2C19, CYP2D6, CYP3A4) from specific humans for each cytochrome family, subfamily and polypeptide were used. The following were used as substrates: CEC (3-Cyano-7-Ethoxycoumarin) which forms as metabolite CHC (3-Cyano-7-Hydroxycoumarin); EFC (7-Ethoxy-4-trifluoromethyl coumarin), forming the metabolite HFC (7-Hydroxytri fluoromethylcoumarin); DBF (Dibenzylfluorescein) and its respective fluorescein metabolite; MFC (7-Methoxy-4-trifluoromethylcoumarin) which forms the metabolite HFC (7-Hydroxytrifluoromethylcoumarin); BFC (7-Benzyloxy-Trifluoromethylcoumarin) and its metabolite HFC; and BzRes (benzyloxyresorufin) to form resofurine. The detection of the metabolite was done with a fluorimetric method: analytical technique to identify and characterize the amount of substance by excitation using a beam of ultraviolet light and measurement of the emitted fluorescence. For detection, a 96-well plate was used. Each sample was tested in two wells (n=2) as standard condition. At least 04 wells were separated for vehicle (control). Compounds were tested at a concentration […], standard for this assay. They were preincubated with a NADPH generator system in a phosphate buffer (pH 7.4) for 5 minutes at 37° C. The reaction was started by adding the specific CYP enzymes, substrate and bovine serum albumin (BSA<0.4 mg/ml). Incubations were performed between 20-50 minutes at 37° C. according to the specific parameter of each fluorogenic substrate, for the evaluated component. Fluorescence at each well was detected before and after the incubation period.

[2] = tested on: mouse hepatocytes (CD-1 males); assay: Intrinsic clearance in cryopreserved mouse hepatocytes; type: in vitro ADME
Protocol: Cryopreserved hepatocytes from humans, rats (Sprague-Dawley males) and from mice (CD-1 males) were used for incubation at different times (0, 0.5, 1, 1.5, 2 hours) at 37° C. followed by HPLC-MS/MS detection. The aim was to verify the clearance time of the test substance on hepatocytes. The experiment was performed on a 96-well plate and the cryopreserved hepatocytes were thawed and resuspended in Krebs-Heinslet buffer(pH 7.3). The reaction was started by adding each test compound to each cell suspension and performing the incubation at the times indicated above. The reaction was quenched with addition of acetonitrile in the wells and detection by HPLC-MS/MS (mass spectrometry). MS/MS is performed by combining two mass detectors into a single instrument.

[3] = tested on: CYP2C9 and CYP2C19; conditions: cited from earlier work
[4] = target: CYP2B6 (Homo sapiens (Human), UniProt P20813); assay: CYP inhibition, fluorogenic substrate; type: in vitro ADME; parameters: dose or concentration left out as unconfirmed; conditions: recombinant CYP2B6, pH 7.4
Text: as §1

[5] = target: CYP2C9 (Homo sapiens (Human), UniProt P11712); assay: CYP inhibition, fluorogenic substrate; type: in vitro ADME; parameters: dose or concentration left out as unconfirmed; conditions: recombinant CYP2C9, pH 7.4
Text: as §1

[6] = target: CYP2D6 (Homo sapiens (Human), UniProt P10635); assay: CYP inhibition, fluorogenic substrate; type: in vitro ADME; parameters: dose or concentration left out as unconfirmed; conditions: recombinant CYP2D6, pH 7.4
Text: as §1

[7] = target: CYP2C19 (Homo sapiens (Human), UniProt P33261); assay: CYP inhibition, fluorogenic substrate; type: in vitro ADME; parameters: dose or concentration left out as unconfirmed; conditions: recombinant CYP2C19, pH 7.4
Text: as §1

[8] = target: CYP2C8 (Homo sapiens (Human), UniProt P10632); assay: CYP inhibition, fluorogenic substrate; type: in vitro ADME; parameters: dose or concentration left out as unconfirmed; conditions: recombinant CYP2C8, pH 7.4
Text: as §1

Chain of CYP2C8 (P10632 whole entry): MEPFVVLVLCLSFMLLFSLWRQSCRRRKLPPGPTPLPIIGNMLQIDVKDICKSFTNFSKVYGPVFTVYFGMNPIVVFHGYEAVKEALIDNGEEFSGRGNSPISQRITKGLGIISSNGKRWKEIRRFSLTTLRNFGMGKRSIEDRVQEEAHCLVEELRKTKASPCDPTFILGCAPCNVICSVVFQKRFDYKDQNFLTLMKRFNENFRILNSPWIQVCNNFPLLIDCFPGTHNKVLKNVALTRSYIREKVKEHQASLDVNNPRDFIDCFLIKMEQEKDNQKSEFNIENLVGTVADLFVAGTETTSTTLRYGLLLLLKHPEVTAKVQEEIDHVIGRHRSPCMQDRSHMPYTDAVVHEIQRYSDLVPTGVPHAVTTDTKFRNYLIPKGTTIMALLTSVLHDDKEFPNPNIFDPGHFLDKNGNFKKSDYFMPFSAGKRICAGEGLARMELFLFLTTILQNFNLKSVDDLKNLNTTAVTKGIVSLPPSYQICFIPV
Chain of CYP2C9 (P11712 whole entry): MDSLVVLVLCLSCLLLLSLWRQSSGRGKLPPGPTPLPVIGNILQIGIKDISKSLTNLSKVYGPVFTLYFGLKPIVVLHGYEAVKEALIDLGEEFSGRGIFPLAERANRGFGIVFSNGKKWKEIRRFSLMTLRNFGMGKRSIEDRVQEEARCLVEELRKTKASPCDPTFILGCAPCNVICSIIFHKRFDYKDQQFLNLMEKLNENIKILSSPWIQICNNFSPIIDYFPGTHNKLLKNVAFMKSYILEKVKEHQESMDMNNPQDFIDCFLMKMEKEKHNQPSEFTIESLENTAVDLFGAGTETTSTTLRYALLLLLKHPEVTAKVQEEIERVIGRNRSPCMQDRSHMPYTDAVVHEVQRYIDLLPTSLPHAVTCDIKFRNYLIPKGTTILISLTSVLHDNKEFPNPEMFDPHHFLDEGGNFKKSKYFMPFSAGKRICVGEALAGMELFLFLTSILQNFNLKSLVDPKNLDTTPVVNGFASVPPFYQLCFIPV
Chain of CYP2D6 (P10635 whole entry): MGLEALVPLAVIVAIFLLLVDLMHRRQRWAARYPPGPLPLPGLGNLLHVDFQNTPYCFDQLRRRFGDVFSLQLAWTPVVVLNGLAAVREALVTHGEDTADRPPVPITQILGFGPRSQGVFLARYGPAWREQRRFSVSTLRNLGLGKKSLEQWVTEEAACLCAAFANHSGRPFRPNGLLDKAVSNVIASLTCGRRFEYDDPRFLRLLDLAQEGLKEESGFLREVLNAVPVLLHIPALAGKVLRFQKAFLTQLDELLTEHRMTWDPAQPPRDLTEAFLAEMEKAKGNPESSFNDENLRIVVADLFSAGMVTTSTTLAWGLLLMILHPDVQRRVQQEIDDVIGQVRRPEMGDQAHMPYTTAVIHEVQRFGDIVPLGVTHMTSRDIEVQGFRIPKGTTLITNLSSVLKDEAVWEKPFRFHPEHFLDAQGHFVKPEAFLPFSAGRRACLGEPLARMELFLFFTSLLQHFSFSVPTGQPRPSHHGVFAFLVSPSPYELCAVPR
Chain of CYP2C19 (P33261 whole entry): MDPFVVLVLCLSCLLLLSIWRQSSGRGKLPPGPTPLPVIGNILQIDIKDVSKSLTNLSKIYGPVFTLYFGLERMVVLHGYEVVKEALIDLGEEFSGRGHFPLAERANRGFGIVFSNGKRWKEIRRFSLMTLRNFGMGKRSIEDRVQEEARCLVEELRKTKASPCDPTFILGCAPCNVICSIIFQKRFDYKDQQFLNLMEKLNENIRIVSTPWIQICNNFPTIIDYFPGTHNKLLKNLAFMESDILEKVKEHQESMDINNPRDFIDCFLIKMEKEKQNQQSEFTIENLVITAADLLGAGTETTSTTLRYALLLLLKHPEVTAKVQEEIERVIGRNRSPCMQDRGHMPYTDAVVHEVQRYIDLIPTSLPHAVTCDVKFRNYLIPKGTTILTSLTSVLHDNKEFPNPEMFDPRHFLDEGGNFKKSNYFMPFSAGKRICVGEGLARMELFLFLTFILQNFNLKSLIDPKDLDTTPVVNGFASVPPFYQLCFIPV
Chain of CYP2B6 (P20813 whole entry): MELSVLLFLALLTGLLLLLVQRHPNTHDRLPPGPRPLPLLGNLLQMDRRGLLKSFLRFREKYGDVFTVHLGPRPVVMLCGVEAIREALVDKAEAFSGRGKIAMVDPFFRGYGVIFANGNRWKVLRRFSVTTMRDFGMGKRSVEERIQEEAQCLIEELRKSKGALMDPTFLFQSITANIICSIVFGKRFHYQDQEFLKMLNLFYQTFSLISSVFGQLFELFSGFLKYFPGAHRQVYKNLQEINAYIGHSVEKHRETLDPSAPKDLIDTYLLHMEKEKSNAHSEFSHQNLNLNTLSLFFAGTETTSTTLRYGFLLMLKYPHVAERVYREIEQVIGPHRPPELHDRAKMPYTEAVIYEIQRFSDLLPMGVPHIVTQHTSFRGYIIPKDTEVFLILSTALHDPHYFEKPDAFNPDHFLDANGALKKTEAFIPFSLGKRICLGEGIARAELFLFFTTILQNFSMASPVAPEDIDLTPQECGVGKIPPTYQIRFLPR
Chain of CYP1A2 (P05177 whole entry): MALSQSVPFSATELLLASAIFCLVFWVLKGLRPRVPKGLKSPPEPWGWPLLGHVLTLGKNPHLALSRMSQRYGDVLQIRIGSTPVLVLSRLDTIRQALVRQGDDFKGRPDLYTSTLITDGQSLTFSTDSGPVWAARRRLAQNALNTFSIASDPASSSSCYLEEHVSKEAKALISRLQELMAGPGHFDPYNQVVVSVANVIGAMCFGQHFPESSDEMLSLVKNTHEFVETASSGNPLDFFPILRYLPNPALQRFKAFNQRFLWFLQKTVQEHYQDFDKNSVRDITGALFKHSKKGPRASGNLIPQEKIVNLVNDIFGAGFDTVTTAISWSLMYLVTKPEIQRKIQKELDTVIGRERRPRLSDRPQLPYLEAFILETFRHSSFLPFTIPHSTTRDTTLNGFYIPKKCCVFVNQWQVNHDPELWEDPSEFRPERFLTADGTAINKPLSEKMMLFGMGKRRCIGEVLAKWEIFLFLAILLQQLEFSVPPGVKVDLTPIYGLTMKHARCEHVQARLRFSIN

For `COc1ccc2cccc(CCNC(C)=O)c2c1` [IA2-76, agomelatine, reference compound], which “affinity to cytochrome isoforms (in words)” value [1] is on record?
The value was “high affinity”.

And the “Intrinsic clearance half-life, Mouse CD-1” value [2]?
Its value is 25 min.

And the “share metabolized by CYP2C9 and CYP2C19” value [3]?
The value was 10%.

What about the inhibition [4] of the same compound?
Its inhibition is 1.8%.

What about the inhibition [5] of the same compound?
Its inhibition is -19.3%.

What about the inhibition [6] of the same compound?
The inhibition was 7.9%.

And the inhibition [7]?
The inhibition was 44.4%.

And the inhibition [8]?
Its inhibition is 12.9%.
